# Paper PMC4441592 (Neuron, 2015)
# Peptide text beside a SMILES is read from it.
# What was measured:
# [1] = target: KORD (D138N hKOR) (Homo sapiens, UniProt P41145, D138N); assay: cell-based; settings: for EC50: EC50(nM)
# [2] = target: KORD (Homo sapiens, UniProt P41145, D138N); assay: Radioligand competition binding, KORD
# [3] = target: T1, KOR (Homo sapiens, UniProt P41145); assay: [3H]-diprenorphine radioligand competition binding, WT KOR
# [4] = target: T1, KOR; assay: cell-based
# [5] = test system: VGAT-ires-Cre mice, VTA/SN^VGAT neurons; assay: Locomotor activity; format: in vivo; settings: for locomotor activity vs vehicle: mice expressing both KORD and hM3Dq in VTA/SN^VGAT neurons, different testing sessions
# [6] = test system: AGRP-ires-cre mice, ARC^AgRP neurons with hM3Dq and KORD; assay: Feeding study with multiplexed KOR and hM3Dq DREADD; format: in vivo; settings: hM3Dq and KORD in ARC^AgRP neurons; CNO 1mg/kg i.p.
# [7] = test system: muscarinic receptor- based DREADDs (Gq, Gi and Gs DREADDs); assay: Activity at muscarinic receptor-based DREADDs; format: cell-based
# [8] = test system: SIM1-Cre mice, PVH^SIM1 neurons; assay: Feeding study in SIM1-cre mice; format: in vivo; settings: wild type control mice injected with cre-dependent KORD virus; 10 mg/kg s.c.
# [9] = test system: CNS molecular targets; assay: NIMH Psychoactive Drug Screening Program profiling; settings: NIMH PDSP; except low KOR binding affinity
# [10] = test system: mice; settings: mouse, in vivo
# [11] = test system: C57BL/6J mice; settings: mouse, in vivo
# [12] = test system: mice; settings: mouse, in vivo; remark: listed apart in the source
# [13] = test system: VTA/SN neurons; assay: Miniature IPSC recording in VTA/SN neurons; format: cell-based; settings: naive mice; 100 nM
# [14] = target: E297A mutant (Homo sapiens, UniProt P41145, E297A); assay: Affinity and agonist potency at E297A KOR mutant; format: cell-based; settings: E297A mutant alone
smiles,measurement,setting,value
CC[C@H](C)[C@H](NC(=O)[C@H](CCCNC(=N)N)NC(=O)[C@H](CCCNC(=N)N)NC(=O)[C@H](CC(C)C)NC(=O)[C@H](Cc1ccccc1)NC(=O)CNC(=O)CNC(=O)[C@@H](N)Cc1ccc(O)cc1)C(=O)N[C@@H](CCCNC(=N)N)C(=O)N1CCC[C@H]1C(=O)N[C@@H](CCCCN)C(=O)N[C@@H](CC(C)C)C(=O)N[C@@H](CCCCN)C(=O)O [Dynorphin A(1-13)],EC50,[1],> 10000 nM
same,Ki,[2],1.62 µM
same,Ki,[3],0.00316 µM
same,EC50,[4]; EC50(nM),19 nM
same,EC50,[4]; pEC50 ± SEM,19.5 nM
CSCC[C@H](NC(=O)[C@H](Cc1ccccc1)NC(=O)CNC(=O)CNC(=O)[C@@H](N)Cc1ccc(O)cc1)C(=O)N[C@@H](CCCNC(=N)N)C(=O)N[C@@H](CCCNC(=N)N)C(=O)N[C@H](C(=O)NCC(=O)N[C@@H](CCCNC(=N)N)C(=O)N1CCC[C@H]1C(=O)N[C@@H](CCC(=O)O)C(=O)N[C@@H](Cc1c[nH]c2ccccc12)C(=O)N[C@@H](Cc1c[nH]c2ccccc12)C(=O)N[C@@H](CCSC)C(=O)N[C@@H](CC(=O)O)C(=O)N[C@@H](Cc1ccc(O)cc1)C(=O)N[C@@H](CCC(N)=O)C(=O)O)C(C)C [BAM 18] (H-YGGFMRRVGRPEWWMDYQ-OH),EC50,[1],> 10000 nM
same,Emax,[4],97%
same,EC50,[4]; EC50(nM),85 nM
same,EC50,[4]; pEC50 ± SEM,85.1 nM
"C[N+]1([O-])CCN(C2=Nc3cc(Cl)ccc3Nc3ccccc32)CC1 [CNO, clozapine-N-oxide]","locomotor activity, same session","[5]; dual DREADD mice, 3.0 mg/kg CNO",significant locomotor depression
same,locomotor activity in control mice,"[5]; mCherry in VTA/SN^VGAT neurons, 3.0 mg/kg i.p.",did not affect behavior
same,locomotor activity vs vehicle,[5]; 3.0 mg/kg,decreased locomotor activity
same,light cycle food intake,[6],0.75 ± 0.03 g
"COC(=O)[C@@H]1C[C@H](O)C(=O)[C@H]2[C@@]1(C)CC[C@H]1C(=O)O[C@H](c3ccoc3)C[C@]21C [Salvinorin B, salvinorin B]",activity at muscarinic receptor-based DREADDs,[7],inactive
same,locomotor activity vs vehicle,[5]; 10.0 mg/kg,enhanced locomotor activity
same,feeding effect,[8],no feeding effects
same,activity against a large number of CNS molecular targets,[9],failed to show any activity
same,rotarod test effect (impairment of motor performance),[10],did not alter performance relative to controls
same,Emax,[1],94%
same,Emax (%),[1],100%
same,brain stimulation reward thresholds (ICSS),[11],failed to significantly elevate thresholds
same,hot plate test effect (analgesia),[12],did not alter performance relative to controls
same,mIPSCs (frequency and amplitude),[13],no effect
same,effect of E297A mutation on agonist potency,[14],no effect on SALB agonist potency
same,Emax,[4],80%
same,Emax (%),[4],100%
